From patent US9497963B2, “Methods and compositions for control of gypsy moth, Lymantria dispar” (Simon Fraser University, priority 2008, dated 2016) come the findings set out here.

As a reminder, the inhibition is the relative decrease from the control value, in per cent.

Marks after values point to notes of the source that are not given here.

For one assay, the system named is male gypsy moth antenna. Kind of assay: Coupled gas chromatographic-electroantennographic detection (GC-EAD). Details: species or system Lymantria dispar. The conditions noted are these: EAD peak size and shape (sharp/broad). The source says: In GC-EAD assays, the analyte is processed by gas chromatography (GC). The column effluent is split, such that molecules of each chromatographic peak arrive simultaneously at the flame ionization detector of the GC and at an anectomized but otherwise intact insect antenna as the biological detector. This procedure detects specific compounds in the analyte that elicit an electrical potential from the antenna.
For GC-EAD recordings, an antenna was carefully dislodged from a male moth's head, and the antennal base placed into the opening of a glass capillary electrode (0.58 mm ID×65 mm length) (A-M Systems, Inc., Carlsborg, Wash., USA) filled with saline solution. The tip of the antenna was removed by spring microscissors (Fine Science Tools Inc., North Vancouver, British Columbia, Canada) and then placed into the opening of the recording electrode mounted on a portable micromanipulator and positioned in front of a constant stream of warm air (Praxair Canada Inc., Mississauga, Ontario, Canada) which delivered the GC column eluent. […] Identical retention times of compounds detected by the flame ionization detector of the GC and by the insect antenna allowed assignment of antennal responses to specific compounds in the eluent.

Assay [1] has as its system male gypsy moth antenna response to pheromone (+)-1. In words: EAG short-term (STI) and long-term (LTI) inhibition of pheromone signaling (Example 5). On the set-up: species or system Lymantria dispar. The conditions noted are these: for Activity (%): short-term inhibition (STI) / inhibition at 0.001 mg / inhibition at 0.01 mg / inhibition at 0.1 mg: negative = enhancement; for Activity (%): short-term inhibition (STI) / Activity (%): long-term inhibition (LTI) / inhibition at 0.001 mg / inhibition at 0.01 mg / inhibition at 0.1 mg / inhibition at 100 µg, 0.1 mg: mean ± S.E.; for Activity (%): long-term inhibition (LTI) / inhibition at 100 µg, 0.1 mg: pure (+)-1 100 ng plume following mixed plume with 100 μg compound; for inhibition at 0.001 mg / inhibition at 0.01 mg / inhibition at 0.1 mg / inhibition at 100 µg, 0.1 mg: Lymantria dispar; for inhibition at 0.001 mg / inhibition at 0.01 mg / inhibition at 0.1 mg: read-out: Activity (%): short-term inhibition (STI); for inhibition at 100 µg, 0.1 mg: read-out: Activity (%): long-term inhibition (LTI). As to the method: The puffs are numbered i-vi and were: i=air, ii=pure pheromone (+)-disparlure, (+)-1, (100 ng), iii-v=disparlure mixed with the test compound, the latter at three different doses, vi=pure (+)-1. Depolarizations from the resting potential are labeled d; hyperpolarizations seen during the recovery phase after a puff are labeled r. Subscripts refer to the puff number. FIG. 5A. Typical trace for compound 3c{2,3}. FIG. 5B. Typical trace for compound 3a{4,4}.
For other compounds, EAG traces were recorded as follows: a fully dislodged antenna from a male gypsy moth was mounted on the end of a reference electrode (a glass capillary with a silver wire, filled with buffered saline: 5 mM NaH2PO4, 10 mM Na2SO4, 4.5 mM KHCO3, 18 mM MgCl2, 4 mM CaCl2, 6 mM KCl, the pH is adjusted to 6.8 using 5 mM Na2HPO4). The tip of the antenna was severed with microscissors and placed in the recording electrode, which was mounted on a micromanipulator. A constant stream of air, that had been purified (charcoal filter), was blown over the antenna at a rate of 300 mL/min. Test samples were delivered through a stimulus delivery tube with a side opening 2 cm from the distal opening. The proximal end of the delivery tube was connected to a controlled stimulus delivery apparatus (Stimulus controller CS-05 Syntech Research and Equipment, NL 1200BM, Hilversum, The Netherlands). The distal end of the delivery tube pointed at the antenna (1 cm from the antenna). The side opening was connected to a cartridge fashioned from a Pasteur pipette which contained a small filter paper (Whatman No. 1) with the stimulus. These pipette cartridges could be prepared a few days in advance and stored at −80° C. wrapped in Al foil and in sealable plastic bags. Sample cartridges were mounted once they had reached room temperature. The stimulus delivery apparatus delivered a second stream of air (a puff) through the Pasteur pipette at a velocity of 600 mL/min, at a specified point in time, for 0.3 s. Receptor potentials of the antennae in response to test stimuli were recorded with a Syntech IDAC probe, amplifier and interfaced board, and were analyzed with EAG Syntech Software Version 2.4 (1996). See FIG. 4 for a representative EAG trace. The EAG traces were evaluated as follows (see FIG. 5).
The net depolarizations, d(net) (in mV), of puffs ii-vi,d(sample), (corrected for the depolarization with clean air, d(air)) d(net)=d(sample)−d(air) (Eq. 1)
The percentage short-term inhibition for each compound (STI(compound)) of puffs iii-v, relative to the first pure pheromone puff (ii) STI(compound)=100×(d(net)(ii)−d(net)(compound))/d(net)(ii) (Eq. 2)
c) the percentage long-term inhibition for each compound (LTI(compound)) of the pure pheromone puff that followed the last mixed puff (vi) relative to the first pure pheromone puff (ii) LTI(compound)=100×(d(net)(ii)−d(net)(vi))/d(net)(ii) (Eq. 3)
The compounds we tested gave weak or no olfactory responses by themselves in electroantennogram (EAG) experiments. The EAG trace reflects the change in the potential across the antenna when an air puff with an odorant is passed over the antenna. To understand the agonistic or antagonistic effect of the compounds on pheromone responses by male moth antennae, four types of EAG experiment were conducted. First, the response of the antenna elicited by a stimulus of pure (+)-1 was compared to the responses elicited by blends of (+)-1 with the test compound (FIG. 5). […] This effect was termed short-term inhibition (STI). […] Second, the time decay and dose responses for LTI activities were studied. Third, the strongest inhibitors were tested for their ability to cause LTI by themselves.
This experiment explored the agonistic or antagonistic activity of the synthetic aromatic compounds (Scheme 1 and eugenol and alkyl eugenols) with the gypsy moth pheromone (+)-1. […]

[2] abbreviates: mixed plume (+)-1 100 ng + compound 1 μg.
[3] abbreviates: mixed plume (+)-1 100 ng + compound 10 μg.
The mark [4] stands for this setting: mixed plume (+)-1 100 ng + compound 100 μg (puff v).

As to `COc1ccccc1O` [2a{1}], the GC-EAD activity result with male gypsy moth antenna was “None”. Moreover, the “Activity (%): short-term inhibition (STI)” value in assay [1] (setting [2]) was 26 ± 14 (13)^e %; in assay [1] (setting [3]), −27 ± 24 (13) %; in assay [1] (setting [4]) it was 9 ± 11 (13) %. The “Activity (%): long-term inhibition (LTI)” value in assay [1] is −13 ± 9 (13) %.
As for `CCOc1ccccc1O` [2a{2}, 2-Ethoxy phenol], in the assay on male gypsy moth antenna, the GC-EAD activity result is given as “None”. Also, the inhibition at 0.001 mg in assay [1] (setting [2]) is 42 ± 12%. The inhibition at 0.01 mg in assay [1] (setting [3]) stood at 26 ± 12%. The inhibition at 0.1 mg in assay [1] (setting [4]) was 58 ± 11%. Further, the inhibition at 100 µg, 0.1 mg in assay [1] came out at 6 ± 4%.
Take `CCCOc1ccccc1O` [2a{3}, 2-Propoxy phenol]: the GC-EAD activity result in the assay with male gypsy moth antenna is on record as “None”. For the same molecule, the inhibition at 0.001 mg in assay [1] (setting [2]) is -26 ± 14%. In assay [1] (setting [3]), the inhibition at 0.01 mg came out at 32 ± 9%. Further, in assay [1] (setting [4]), the inhibition at 0.1 mg stood at 46 ± 13%. Also, the inhibition at 100 µg, 0.1 mg in assay [1] worked out at 18 ± 5%.
The like results for `CCCCOc1ccccc1O` [2a{4}, 2-Butoxy phenol] were, in that order, “None”, 26 ± 12%, 21 ± 11%, 50% and 5 ± 6%.
As to `CC(C)CCOc1ccccc1O` [2a{5}, 2-(3-Methyl-butyloxy) phenol], the GC-EAD activity entry with male gypsy moth antenna is recorded as “None”. Moreover, in assay [1], the “short-term effect on antennal pheromone response (in words)” value (“short-term effect” for short) is recorded as “slightly agonistic” and the inhibition at 100 µg, 0.1 mg was 6 ± 6%. In assay [1] (setting [2]), the inhibition at 0.001 mg turned out to be 22 ± 8%. Moreover, the inhibition at 0.01 mg in assay [1] (setting [3]) was -44 ± 26%. In assay [1] (setting [4]), the inhibition at 0.1 mg was -37 ± 33%.
Take `C=CCOc1ccccc1O` [2a{6}, 2-Allyloxy phenol]: the GC-EAD activity entry with male gypsy moth antenna is “None”. The inhibition at 0.001 mg in assay [1] (setting [2]) is -63 ± 62%. In addition, in assay [1] (setting [3]), the inhibition at 0.01 mg was -33 ± 40%. The inhibition at 0.1 mg in assay [1] (setting [4]) is -31 ± 71%. The inhibition at 100 µg, 0.1 mg in assay [1] came out at 16 ± 8%.
For `COc1cccc(O)c1` [2b{1}, 3-Methoxy phenol], in that order: “None”, 6 ± 11%, 14 ± 22%, 49 ± 8% and 4 ± 7%.
The like results for `CCOc1cccc(O)c1` [2b{2}, 3-Ethoxy phenol] were, in that order, “None”, 4 ± 20%, 0%, 44 ± 18% and -3 ± 5%.
On to `CCCOc1cccc(O)c1` [2b{3}, 3-Propoxy phenol], for which the GC-EAD activity entry in the assay with male gypsy moth antenna is recorded as “None”. In assay [1] (setting [2]), the inhibition at 0.001 mg was -6 ± 14%. In addition, in assay [1] (setting [3]), the inhibition at 0.01 mg turned out to be 36 ± 19%. For the same molecule, the inhibition at 0.1 mg in assay [1] (setting [4]) was 65 ± 14%. The inhibition at 100 µg, 0.1 mg in assay [1] was 8 ± 6%.
Take `CCCCOc1cccc(O)c1` [2b{4}, 3-butoxyphenol]: the GC-EAD activity entry in the assay on male gypsy moth antenna is on record as “None”. In assay [1], the “short-term effect” value is reported as “short-term enhancements” and the inhibition at 100 µg, 0.1 mg was -1 ± 15%. Further, in assay [1] (setting [2]), the inhibition at 0.001 mg is -6 ± 18%. For the same molecule, the inhibition at 0.01 mg in assay [1] (setting [3]) was -20 ± 31%. In addition, the inhibition at 0.1 mg in assay [1] (setting [4]) was -74 ± 71%.
Take `CC(C)CCOc1cccc(O)c1` [2b{5}, 3-(3-Methyl-butyloxy) phenol]: in the assay on male gypsy moth antenna, the GC-EAD activity result is given as “None”. In addition, the inhibition at 0.001 mg in assay [1] (setting [2]) is -87 ± 63%. Besides, the inhibition at 0.01 mg in assay [1] (setting [3]) is -111 ± 78%. Besides, in assay [1] (setting [4]), the inhibition at 0.1 mg is -9 ± 58%. In addition, the inhibition at 100 µg, 0.1 mg in assay [1] came to 4 ± 7%.
Regarding `C=CCOc1cccc(O)c1` [2b{6}], the GC-EAD activity result in the assay on male gypsy moth antenna is given as “None”. In addition, the “Activity (%): short-term inhibition (STI)” value in assay [1] (setting [2]) is recorded as 24 ± 23 (7) %; in assay [1] (setting [3]) it was 28 ± 20 (7) %; in assay [1] (setting [4]) it was 5 ± 32 (7) %. Besides, the “Activity (%): long-term inhibition (LTI)” value in assay [1] is on record as 1 ± 7 (7) %.
Take `CCCCOc1ccc(O)cc1` [2c{4}, 4-Butoxy phenol]: the GC-EAD activity entry in the assay on male gypsy moth antenna is reported as “None”. Further, in assay [1], the “short-term effect” value is “short-term enhancements” and the inhibition at 100 µg, 0.1 mg came to 26 ± 13%. For the same molecule, in assay [1] (setting [2]), the inhibition at 0.001 mg is 12 ± 37%. The inhibition at 0.01 mg in assay [1] (setting [3]) stood at 38 ± 11%. In assay [1] (setting [4]), the inhibition at 0.1 mg was -122 ± 84%.
